Series [1] is described as follows: Partition coefficient (logD). The series is classed as physicochemical. To be noted: octanol/water.
Series [2] can be described thus: Dissociation constant was determined. The series is classed as physicochemical.
For the next series, the target named is GABA B receptor (Rattus norvegicus, UniProt O88871+Q9Z0U4). The experiment in a line: Displacement of [3H]GABA from Gamma-aminobutyric acid type B receptor in rat brain membranes. The series is classed as cell membranes.
Series [3] has as its target Gamma-aminobutyric acid receptor subunit rho-1 (Homo sapiens) (UniProt P24046). Briefly: Inhibition of inward current in oocytes expressing human GABA-C receptor rho1 subunit (No inhibition). To be noted: Oocyte. The series is classed as cell-based.
Series [4] shares this target. Briefly: Inhibition of inward current in oocytes expressing human GABA-C receptor rho1 subunit. The series is classed as cell-based. Conditions: Oocyte.

The values below come from ChEMBL document CHEMBL1131865, “Aminomethyl-2,6-difluorophenols as a novel class of increased lipophilicity GABA(C) receptor antagonists” (Bioorg Med Chem Lett, 1999).

Structures are written as SMILES. Active and inactive are the calls of the source. No cut-off for these calls is given here. Some results are limits rather than exact numbers.

Chain of Gamma-aminobutyric acid receptor subunit rho-1 (Homo sapiens) (P24046 whole entry): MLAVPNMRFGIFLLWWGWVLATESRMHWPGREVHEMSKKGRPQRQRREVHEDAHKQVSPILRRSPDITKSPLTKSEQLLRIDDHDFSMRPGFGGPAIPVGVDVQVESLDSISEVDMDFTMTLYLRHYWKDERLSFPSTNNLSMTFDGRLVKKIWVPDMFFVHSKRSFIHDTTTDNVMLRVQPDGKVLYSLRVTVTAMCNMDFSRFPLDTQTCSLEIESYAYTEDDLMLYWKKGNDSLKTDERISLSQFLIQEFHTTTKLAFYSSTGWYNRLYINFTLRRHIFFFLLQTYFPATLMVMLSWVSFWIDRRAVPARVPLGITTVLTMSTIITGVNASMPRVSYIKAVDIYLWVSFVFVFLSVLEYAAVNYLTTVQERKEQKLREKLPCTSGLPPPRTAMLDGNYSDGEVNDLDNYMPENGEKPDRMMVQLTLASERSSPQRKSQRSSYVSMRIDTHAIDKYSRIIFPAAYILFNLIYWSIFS
Chain of GABA B receptor (Q9Z0U4 whole entry): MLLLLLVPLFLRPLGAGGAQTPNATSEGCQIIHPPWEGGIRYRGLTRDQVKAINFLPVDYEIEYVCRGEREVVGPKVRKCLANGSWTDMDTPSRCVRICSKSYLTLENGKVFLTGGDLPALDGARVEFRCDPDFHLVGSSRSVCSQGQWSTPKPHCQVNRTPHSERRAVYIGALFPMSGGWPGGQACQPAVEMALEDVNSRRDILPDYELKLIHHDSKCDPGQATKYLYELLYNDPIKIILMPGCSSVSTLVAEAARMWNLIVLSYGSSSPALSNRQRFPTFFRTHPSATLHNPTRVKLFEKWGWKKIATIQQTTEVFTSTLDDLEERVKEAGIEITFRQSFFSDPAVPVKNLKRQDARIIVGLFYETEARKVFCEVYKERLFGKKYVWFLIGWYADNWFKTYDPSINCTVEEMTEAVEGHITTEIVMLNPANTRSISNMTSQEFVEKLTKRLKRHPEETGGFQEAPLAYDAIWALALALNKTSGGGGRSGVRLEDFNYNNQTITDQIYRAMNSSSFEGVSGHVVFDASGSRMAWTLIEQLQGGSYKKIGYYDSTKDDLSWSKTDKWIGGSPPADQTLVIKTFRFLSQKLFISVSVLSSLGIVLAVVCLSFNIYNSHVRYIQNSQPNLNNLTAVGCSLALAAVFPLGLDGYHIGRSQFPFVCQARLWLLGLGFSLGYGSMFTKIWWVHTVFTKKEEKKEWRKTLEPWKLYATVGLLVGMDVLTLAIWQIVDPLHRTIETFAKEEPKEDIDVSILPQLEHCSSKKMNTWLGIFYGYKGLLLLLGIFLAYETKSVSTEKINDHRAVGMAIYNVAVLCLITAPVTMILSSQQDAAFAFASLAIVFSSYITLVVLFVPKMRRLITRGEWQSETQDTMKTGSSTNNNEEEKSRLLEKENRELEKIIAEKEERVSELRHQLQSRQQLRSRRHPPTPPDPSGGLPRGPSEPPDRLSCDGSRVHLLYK
Chain of GABA B receptor (O88871 whole entry): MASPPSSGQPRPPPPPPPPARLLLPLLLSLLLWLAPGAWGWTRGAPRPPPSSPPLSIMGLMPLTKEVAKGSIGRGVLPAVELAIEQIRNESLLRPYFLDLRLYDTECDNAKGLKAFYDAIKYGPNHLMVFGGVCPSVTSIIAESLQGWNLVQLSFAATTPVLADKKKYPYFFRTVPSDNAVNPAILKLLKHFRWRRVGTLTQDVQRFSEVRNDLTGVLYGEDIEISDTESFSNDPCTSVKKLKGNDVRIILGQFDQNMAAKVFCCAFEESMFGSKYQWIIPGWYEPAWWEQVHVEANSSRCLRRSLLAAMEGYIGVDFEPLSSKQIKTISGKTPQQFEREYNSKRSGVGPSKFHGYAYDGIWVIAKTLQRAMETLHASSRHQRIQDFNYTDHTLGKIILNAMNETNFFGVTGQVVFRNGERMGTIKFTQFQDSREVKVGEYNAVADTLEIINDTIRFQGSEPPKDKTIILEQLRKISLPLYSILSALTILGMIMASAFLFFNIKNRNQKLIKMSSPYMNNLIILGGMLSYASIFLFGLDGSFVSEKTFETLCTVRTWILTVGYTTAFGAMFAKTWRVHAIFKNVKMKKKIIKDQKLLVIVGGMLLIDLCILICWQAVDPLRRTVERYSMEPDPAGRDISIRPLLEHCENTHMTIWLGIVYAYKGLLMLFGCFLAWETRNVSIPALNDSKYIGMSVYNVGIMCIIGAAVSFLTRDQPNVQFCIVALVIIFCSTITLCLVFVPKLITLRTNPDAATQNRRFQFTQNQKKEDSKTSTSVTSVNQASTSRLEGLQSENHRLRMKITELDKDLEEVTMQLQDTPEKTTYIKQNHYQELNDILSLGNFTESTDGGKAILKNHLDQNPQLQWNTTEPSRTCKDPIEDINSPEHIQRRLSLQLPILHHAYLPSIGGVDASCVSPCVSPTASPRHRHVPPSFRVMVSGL

For the molecule `CP(=O)(O)C1=CCNCC1`, the logD in series [1] was -3.7.
In the case of `NCCCC(=O)O` [GAMMA-AMINOBUTYRIC ACID], the logD in series [1] is -3.1.
In turn, `NCc1ccc(F)c(O)c1F` gave a pKa in series [2] of 6.52. Also, the logD in series [1] is -1.7. The molecule further displayed an IC50 at GABA B receptor greater than 1000 µM. Besides, the Kb result in series [3] was “inactive”.
In turn, `NCc1cc(F)c(O)c(F)c1` displayed a pKa in series [2] of 6.98. Further, the logD in series [1] was -1.7. Also, at GABA B receptor, the concentration for half-maximal inhibition (IC50) was greater than 1000 µM. In addition, the Kb in series [3] came to 75.5 µM. Besides, the Log KB in series [4] is -4.12.
